The values that follow are results of earlier work, collected in patent publication US20140213664A1, “PROCESSES, PRODUCTS AND METHODOLOGIES FOR MAKING AND USING NOVEL BIOADVANTAGED SWEETENERS” (priority 2013, published 2014).

The test system of series [1] is STZ-induced diabetic rats.
For series [2] the following is noted: injected hypodermically.

Regarding `O=CC=Cc1ccccc1` [Cinnamaldehyde], in series [1], the HDL-cholesterol result was “increasing”; the antihyperglycemic effect entry is recorded as “significant antihyperglycemic effect”; the “total cholesterol and triglyceride levels” value is “lowering”.
On to `O=C(CCc1ccc(O)cc1)c1c(O)cc(O)cc1O[C@@H]1O[C@H](CO)[C@@H](O)[C@H](O)[C@H]1O` [Phlorizin], for which the glycosuria result in series [2] was “produces glycosuria”.
